We go through 17 compounds from patent publication US20260132123A1, “ABAD INHIBITOR COMPOUNDS” (UNIVERSITY COURT OF THE UNIVERSITY OF ST ANDREWS, priority 2021, published 2026).

The target in series [1] is T1, 17β-HSD10 (Homo sapiens, UniProt Q99714).
T1 construct: Histev (histidine tag with TEV site) (N, cleaved yes); made in house; host or cells: E. coli BL21-CodonPlus
T1 sequence (Q99714 1-261): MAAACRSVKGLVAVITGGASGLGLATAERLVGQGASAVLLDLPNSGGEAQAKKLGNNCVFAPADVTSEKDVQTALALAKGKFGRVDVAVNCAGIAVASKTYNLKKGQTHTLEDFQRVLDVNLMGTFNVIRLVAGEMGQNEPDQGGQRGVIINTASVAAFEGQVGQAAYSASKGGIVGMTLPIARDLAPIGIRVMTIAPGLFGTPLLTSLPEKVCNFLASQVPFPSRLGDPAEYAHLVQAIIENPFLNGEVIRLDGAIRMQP
As to the kind of experiment: 17β-HSD10 (ABAD) enzyme inhibition assay, NADH oxidation read at 340 nm (primary screen and dose response). The series is classed as biochemical. The note with it: for EC50 / Max. Effect (%) / Hill Slope / Max. Fit / Min. Fit: recombinant 17βHSD10 enzyme assay; for Hill Slope / Max. Fit / Min. Fit: curve fit. In short, it runs like this:
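Screening used a 35 min room-temperature endpoint A340 read after compound (10 μM) and enzyme (2.5 nM, E. coli-expressed, His-tag removed) preincubated 15 min, then 100 μM NADH plus acetoacetyl-CoA added. Dose-response runs tracked absorbance kinetically 45 min; buffer pH 7.4 Tris with BSA, DTT.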

Series [2] concerns mtsABAD HEK293 cells. The series is described as follows: Lactate dehydrogenase (LDH) cytotoxicity assay. The series is classed as cell-based, human. The following applies: 50 μM compound. Here is the method:
Cell cytotoxicity was assessed via the measurement of lactate dehydrogenase leakage into the culture medium using a commercially available kit from Pierce (Thermo Scientific cat no. 88953). This was carried out in accordance with the kit guidelines, with the activity of Lactate Dehydrogenase (LDH) being calculated from the change in absorbance at […] as NADH is reduced. HEK293 cells overexpressing mts17β-HSD10 were cultured in phenol-red free media (10% fetal bovine serum (FBS), 1 mM sodium pyruvate, 100 units penicillin, 0.1 mg/mL streptomycin and 2 mM L-glutamine) and seeded at a density of 10,000 cells per well (100 μL, 96 well plates). […] Treated cells were incubated at 37° C. and CO2 (5%) for 24 hours before the LDH assay was performed as per the manufacturer's instructions. Spontaneous control (water) and maximum control (lysis buffer) used in accordance with the kit guide. Absorbance was measured at 490 nm and 680 nm using a SpectraMaxM2e spectrophotometer. The measured LDH activity was used to calculate % cytotoxicity using the following equation: […]

Series [3] deals with mtsABAD HEK293 cells. The series is described as follows: Alamar Blue cell viability assay. The series is classed as cell-based, human. The note with it: 50 μM compound. The method, then: Cell viability was assessed via fluorescence change using the commercially available Alamar Blue from ThermoFisher. HEK293 cells overexpressing mts17β-HSD10 were cultured in phenol-red free media (10% FBS, 1 mM sodium pyruvate, 100 units penicillin, 0.1 mg/mL streptomycin and 2 mM L-glutamine) and seeded at a density of 10,000 cells per well (100 μL, 96 well plates). […] Treated cells were then incubated at 37° C. and CO2 (5%) for 24 hours before the assay was performed as per the manufacturer's instructions. Fluorescence was measured at 530 nm excitation and 590 nm emission using a SpectraMaxM2e spectrophotometer.
(Alamar Blue is a resazurin reagent that responds to reducing activity.)

As usually defined, the EC50 is the concentration needed to bring the measured effect to its halfway point. `COCCN(C(=O)c1ccccc1F)c1cccc(N(C)Cc2cn(CCOC)cn2)c1` [ESC1002164, 2-fluoro-N-(2-methoxyethyl)-N-[3-[[1-(2-methoxyethyl)imidazol-4-yl]methyl-methylamino]phenyl]benzamide]: in series [1], the EC50 was above 20000 nM and the “Max. Effect (%)” value is given as 2%. Besides, in series [2], the “LDH % Toxicity (50 μM Dose)” value came to 5.093%. Moreover, in series [3], the “Alamar Blue % Viability (50 μM Dose)” value worked out at 77.951%.

For `CC(C)CN(C(=O)C(C)C)c1cccc(N(C)Cc2cnc[nH]2)c1` [ESC1002165, N-[3-[1H-imidazol-5-ylmethyl(methyl)amino]phenyl]-N-isobutyl-2-methyl-propanamide], in series [1], the EC50 is 1660 nM, the “Max. Effect (%)” value came to 94%, the “Hill Slope” value stood at 1 and the “Max. Fit” value was 100. Also, in series [1], the “Min. Fit” value is listed as 0. Also, in series [2], the “LDH % Toxicity (50 μM Dose)” value was 4.074%. Moreover, in series [3], the “Alamar Blue % Viability (50 μM Dose)” value is listed as 88.291%.

As for `CC(C)CN(C(=O)C1CCCCC1)c1cccc(N(C)Cc2cnc[nH]2)c1` [ESC1002166, N-[3-[1H-imidazol-5-ylmethyl(methyl)amino]phenyl]-N-isobutyl-cyclohexanecarboxamide], in series [1], the “17β-HSD10 / ABAD activity in words (SAR discussion)” value is “less potent”, the EC50 is 955 nM, the “Max. Effect (%)” value worked out at 99% and the “Hill Slope” value stood at 0.93. Also, in series [1], the “Max. Fit” value is 104 and the “Min. Fit” value came out at 0. Also, the “LDH % Toxicity (50 μM Dose)” value in series [2] was 4.554%. The “Alamar Blue % Viability (50 μM Dose)” value in series [3] worked out at 82.237%.

With `CC(C)CN(C(=O)Cc1ccccc1)c1cccc(N(C)Cc2cnc[nH]2)c1` [ESC1002167, N-[3-[1H-imidazol-5-ylmethyl(methyl)amino]phenyl]-N-isobutyl-2-phenyl-acetamide], in series [1], the EC50 is 12600 nM, the “Max. Effect (%)” value came out at 62%, the “Hill Slope” value is recorded as 1 and the “Max. Fit” value is given as 100. For the same compound, in series [1], the “Min. Fit” value came out at 0. The “LDH % Toxicity (50 μM Dose)” value in series [2] turned out to be 4.492%. For the same compound, the “Alamar Blue % Viability (50 μM Dose)” value in series [3] worked out at 79.269%.

Regarding `CC(C)CN(C(=O)CCc1ccccc1)c1cccc(N(C)Cc2cnc[nH]2)c1` [ESC1002168, N-[3-[1H-imidazol-5-ylmethyl(methyl)amino]phenyl]-N-isobutyl-3-phenyl-propanamide], in series [1], the EC50 is 8910 nM, the “Max. Effect (%)” value is recorded as 72%, the “Hill Slope” value is listed as 1.1 and the “Max. Fit” value is 100. Besides, the “Min. Fit” value in series [1] is listed as 0. The “LDH % Toxicity (50 μM Dose)” value in series [2] is recorded as 4.285%. Also, the “Alamar Blue % Viability (50 μM Dose)” value in series [3] is given as 82.648%.

On to `CC(C)CN(C(=O)c1ccccc1)c1cccc(N(C)Cc2cnc[nH]2)c1` [ESC1002169, N-[3-[1H-imidazol-5-ylmethyl(methyl)amino]phenyl]-N-isobutyl-benzamide], for which, in series [1], the EC50 was 646 nM, the “Max. Effect (%)” value is recorded as 97%, the “Hill Slope” value is listed as 1.1 and the “Max. Fit” value amounted to 98. Moreover, the “Min. Fit” value in series [1] is recorded as 0. For the same compound, the “LDH % Toxicity (50 μM Dose)” value in series [2] stood at 4.554%. Moreover, the “Alamar Blue % Viability (50 μM Dose)” value in series [3] came to 84.229%.

Regarding `Cc1n[nH]c(Cc2ccccc2)c1-c1ccccc1O` [ESC1002170, 2-(5-benzyl-3-methyl-1H-pyrazol-4-yl) phenol], in series [1], the EC50 was 501 nM, the “Max. Effect (%)” value is given as 99%, the “Hill Slope” value worked out at 1.1 and the “Max. Fit” value worked out at 98. Moreover, in series [1], the “Min. Fit” value came to 0. For the same compound, in series [2], the “LDH % Toxicity (50 μM Dose)” value is 5.192%. Also, the “Alamar Blue % Viability (50 μM Dose)” value in series [3] came to 79.141%.

For the compound `CC(=O)N(CC(C)C)c1cccc(N(C)Cc2cnc[nH]2)c1` [ESC1002171, N-[3-[1H-imidazol-5-ylmethyl(methyl)amino]phenyl]-N-isobutyl-acetamide], in series [1], the EC50 is above 20000 nM and the “Max. Effect (%)” value was found to be 34%. In addition, the “LDH % Toxicity (50 μM Dose)” value in series [2] came to 5.933%. In addition, the “Alamar Blue % Viability (50 μM Dose)” value in series [3] is 86.843%.

As for `CC(C)CN(C(=O)c1cccc2ccccc12)c1cccc(N(C)Cc2cnc[nH]2)c1` [ESC1002172, N-[3-[1H-imidazol-5-ylmethyl(methyl)amino]phenyl]-N-isobutyl-naphthalene-1-carboxamide], in series [1], the concentration giving a half-maximal response (EC50) is 2820 nM, the “Max. Effect (%)” value stood at 87%, the “Hill Slope” value was determined as 1.1 and the “Max. Fit” value was found to be 96. The “Min. Fit” value in series [1] was determined as 0. In addition, the “LDH % Toxicity (50 μM Dose)” value in series [2] was found to be 5.472%. In addition, the “Alamar Blue % Viability (50 μM Dose)” value in series [3] came to 85.337%.

Consider `COc1ccc(C(=O)N(CC(C)C)c2cccc(N(C)Cc3cnc[nH]3)c2)cc1` [ESC1002182, N-[3-[1H-imidazol-5-ylmethyl(methyl)amino]phenyl]-N-isobutyl-4-methoxy-benzamide], for which, in series [1], the EC50 was 331 nM, the “Max. Effect (%)” value is 99%, the “Hill Slope” value stood at 0.8 and the “Max. Fit” value is 103. The “Min. Fit” value in series [1] was found to be 0. Moreover, the “LDH % Toxicity (50 μM Dose)” value in series [2] is 4.733%. Further, the “Alamar Blue % Viability (50 μM Dose)” value in series [3] amounted to 87.643%.

As to `CC(C)CN(C(=O)c1ccc(Cl)cc1)c1cccc(N(C)Cc2cnc[nH]2)c1` [ESC1002183, 4-chloro-N-[3-[1H-imidazol-5-ylmethyl(methyl)amino]phenyl]-N-isobutyl-benzamide], in series [1], the EC50 is 776 nM, the “Max. Effect (%)” value is recorded as 95%, the “Hill Slope” value is on record as 1.2 and the “Max. Fit” value worked out at 97. For the same compound, in series [1], the “Min. Fit” value was 0. Also, the “LDH % Toxicity (50 μM Dose)” value in series [2] amounted to 5.082%. Also, in series [3], the “Alamar Blue % Viability (50 μM Dose)” value is reported as 89.373%.

Regarding `CC(C)CN(C(=O)c1ccccc1F)c1cccc(N(C)Cc2cncn2C)c1` [ESC1002199], in series [1], the EC50 is above 20000 nM and the “Max. Effect (%)” value is reported as 13%. The “LDH % Toxicity (50 μM Dose)” value in series [2] stood at 5.028%. Moreover, the “Alamar Blue % Viability (50 μM Dose)” value in series [3] is listed as 89.524%.

For the compound `CC(C)CN(C(=O)c1ccccc1F)c1cccc(N(C)Cc2cn(C)cn2)c1` [ESC1002200], in series [1], the EC50 was 9120 nM, the “Max. Effect (%)” value was determined as 67%, the “Hill Slope” value is recorded as 1 and the “Max. Fit” value is recorded as 96. In addition, the “Min. Fit” value in series [1] stood at 0. Moreover, the “LDH % Toxicity (50 μM Dose)” value in series [2] was determined as 5.136%. Also, the “Alamar Blue % Viability (50 μM Dose)” value in series [3] was found to be 79.220%.

In the case of `CC(C)CN(C(=O)c1ccccc1F)c1cccc(N(C)Cc2ncc[nH]2)c1` [ESC1002201], in series [1], the EC50 is above 20000 nM and the “Max. Effect (%)” value came out at 41%. The “LDH % Toxicity (50 μM Dose)” value in series [2] came to 5.842%. Also, the “Alamar Blue % Viability (50 μM Dose)” value in series [3] amounted to 80.481%.

For `CC(C)CN(C(=O)c1ccccc1F)c1cccc(N(C)Cc2nccn2C)c1` [ESC1002202], in series [1], the EC50 was 10000 nM, the “Max. Effect (%)” value came to 57%, the “Hill Slope” value amounted to 1.3 and the “Max. Fit” value is given as 79. Further, in series [1], the “Min. Fit” value was determined as 0. The “LDH % Toxicity (50 μM Dose)” value in series [2] worked out at 2.542%. The “Alamar Blue % Viability (50 μM Dose)” value in series [3] turned out to be 81.531%.

On to `Cc1ncc(CN(C)c2cccc(N(CC(C)C)C(=O)c3ccccc3F)c2)[nH]1` [ESC1002203], for which, in series [1], the “17β-HSD10 / ABAD activity in words (SAR discussion)” value is on record as “only slightly reduced ABAD inhibition levels”, the “fold less potent than ESC1002033” value is on record as “approximately 3 fold”, the EC50 is 525 nM and the “Max. Effect (%)” value is on record as 97%. Further, in series [1], the “Hill Slope” value amounted to 1.1, the “Max. Fit” value turned out to be 98 and the “Min. Fit” value turned out to be 0. In series [2] (listed as ESC1002203-01), the “LDH % Toxicity (50 μM Dose)” value is on record as 6.638%. For the same compound, the “Alamar Blue % Viability (50 μM Dose)” value in series [3] (listed as ESC1002203-01) is 87.491%.

As for `CC(C)CN(C(=O)c1ccccc1F)c1cccc(N(C)Cc2ccn[nH]2)c1` [ESC1002205], in series [1], the “Max. Effect (%)” value worked out at 96%, the “Hill Slope” value is given as 1.1, the “Max. Fit” value is reported as 97 and the “Min. Fit” value is recorded as 0. Moreover, the “LDH % Toxicity (50 μM Dose)” value in series [2] (listed as ESC1002205-01) was 5.840%. Moreover, the “Alamar Blue % Viability (50 μM Dose)” value in series [3] (listed as ESC1002205-01) came to 95.933%.
